In article PMC3914206:

Assays:
Assay type in all cases: binding
panel of 442 kinases [1] = target: T1, panel of 442 kinases (Homo sapiens, UniProt P42336, E545A); settings: Compound Concentration 10 µM
T1 construct: purchased KINOMEscan
Source text: (§1) We assessed the selectivity of members of this scaffold using the KINOMEscan methodology across a near comprehensive panel of 442 kinases [[18,27]].

panel of 442 kinases [2] = target: T2, panel of 442 kinases (Homo sapiens, UniProt Q8TBX8); settings: Compound Concentration 10 µM
T2 construct: purchased KINOMEscan
T2 sequence (Q8TBX8 1-421): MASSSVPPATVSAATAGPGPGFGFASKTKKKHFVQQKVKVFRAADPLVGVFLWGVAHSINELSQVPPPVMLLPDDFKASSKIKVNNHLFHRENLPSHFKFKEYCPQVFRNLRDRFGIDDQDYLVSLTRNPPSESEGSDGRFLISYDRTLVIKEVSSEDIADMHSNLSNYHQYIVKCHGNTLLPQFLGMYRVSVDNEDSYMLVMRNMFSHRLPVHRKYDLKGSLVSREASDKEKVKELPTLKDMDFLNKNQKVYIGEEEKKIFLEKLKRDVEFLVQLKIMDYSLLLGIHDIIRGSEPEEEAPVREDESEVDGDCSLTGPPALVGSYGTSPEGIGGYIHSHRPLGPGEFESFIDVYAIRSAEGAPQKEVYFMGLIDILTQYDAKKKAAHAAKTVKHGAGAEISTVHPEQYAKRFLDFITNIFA
Source text: as §1

panel of 442 kinases [3] = target: T3, panel of 442 kinases (Homo sapiens, UniProt Q6PHR2); settings: kinase ULK3; compound concentration 10 µM
T3 construct: purchased KINOMEscan
T3 sequence (Q6PHR2 1-472): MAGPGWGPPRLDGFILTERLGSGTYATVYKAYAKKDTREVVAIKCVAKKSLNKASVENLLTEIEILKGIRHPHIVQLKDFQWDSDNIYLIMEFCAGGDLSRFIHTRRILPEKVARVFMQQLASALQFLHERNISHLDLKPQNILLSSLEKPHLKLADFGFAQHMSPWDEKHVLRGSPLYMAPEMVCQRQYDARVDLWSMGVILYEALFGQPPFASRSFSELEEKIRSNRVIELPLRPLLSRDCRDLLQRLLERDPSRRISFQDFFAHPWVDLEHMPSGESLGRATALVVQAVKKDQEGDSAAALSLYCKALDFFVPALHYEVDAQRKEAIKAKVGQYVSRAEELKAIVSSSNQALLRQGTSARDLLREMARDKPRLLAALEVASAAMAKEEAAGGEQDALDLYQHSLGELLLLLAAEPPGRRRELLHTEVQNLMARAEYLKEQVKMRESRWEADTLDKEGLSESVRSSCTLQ
Source text: as §1

T1 sequence (P42336 whole entry E545A): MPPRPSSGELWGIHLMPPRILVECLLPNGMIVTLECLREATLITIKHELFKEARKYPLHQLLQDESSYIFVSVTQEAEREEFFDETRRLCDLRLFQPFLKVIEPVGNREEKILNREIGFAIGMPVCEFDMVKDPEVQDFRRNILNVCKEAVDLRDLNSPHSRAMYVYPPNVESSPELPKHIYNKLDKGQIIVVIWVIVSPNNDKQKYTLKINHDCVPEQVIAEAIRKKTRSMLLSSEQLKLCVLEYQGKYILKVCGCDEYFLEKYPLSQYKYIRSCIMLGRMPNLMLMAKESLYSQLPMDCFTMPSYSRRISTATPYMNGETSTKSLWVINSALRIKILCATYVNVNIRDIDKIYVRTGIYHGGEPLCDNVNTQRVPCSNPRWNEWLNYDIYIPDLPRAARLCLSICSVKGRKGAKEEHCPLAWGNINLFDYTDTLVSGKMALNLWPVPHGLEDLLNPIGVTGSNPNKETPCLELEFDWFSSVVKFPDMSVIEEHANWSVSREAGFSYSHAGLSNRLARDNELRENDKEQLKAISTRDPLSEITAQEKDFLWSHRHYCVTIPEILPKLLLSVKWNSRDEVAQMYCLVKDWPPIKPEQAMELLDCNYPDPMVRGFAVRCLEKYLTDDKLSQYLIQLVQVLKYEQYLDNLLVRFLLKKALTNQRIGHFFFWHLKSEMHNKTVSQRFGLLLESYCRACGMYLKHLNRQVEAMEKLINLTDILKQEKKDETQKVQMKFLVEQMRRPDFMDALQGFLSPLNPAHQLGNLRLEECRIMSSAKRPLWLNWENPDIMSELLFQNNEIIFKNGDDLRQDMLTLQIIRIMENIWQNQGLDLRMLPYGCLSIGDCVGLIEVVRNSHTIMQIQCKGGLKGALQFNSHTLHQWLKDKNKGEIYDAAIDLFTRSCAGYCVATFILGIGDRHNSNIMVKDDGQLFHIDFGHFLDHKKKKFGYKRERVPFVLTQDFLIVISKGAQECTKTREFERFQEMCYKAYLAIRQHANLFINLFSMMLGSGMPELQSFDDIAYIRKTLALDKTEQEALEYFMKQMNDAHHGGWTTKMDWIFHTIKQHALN

SMILES | KINOMEscan: PIK3CA(E545A) (panel of 442 kinases [1]) | KINOMEscan: PIP5K2C (panel of 442 kinases [2]) | % Ctrl, ULK3 (panel of 442 kinases [3])
CCOc1cc(C(=O)N2CCC(N3CCN(C)CC3)CC2)ccc1Nc1ncc2c(n1)N(C1CCCC1)c1ccccc1C(=O)N2C [Compound 26] | 91 | 93 | 100 % Ctrl
COc1cc(C(=O)N2CCC(N3CCN(C)CC3)CC2)ccc1Nc1ncc2c(n1)N(C1CCCC1)c1ccccc1C(=O)N2C [Compound 25, 11-cyclopentyl-2-((2-methoxy-4-(4-(4-methylpiperazin-1-yl)piperidine-1-carbonyl)phenyl)amino)-5-methyl-5H-benzo[e]pyrimido[5,4-b][1,4]diazepin-6(11H)-one] | 85 | 96 | 100 % Ctrl
COc1cc(C(=O)N2CCC(N3CCN(C)CC3)CC2)ccc1Nc1ncc2c(n1)N1CCc3cccc(c31)C(=O)N2C [Compound 24] | 68 | – | 100 % Ctrl
COc1cc(C(=O)N2CCC(N3CCN(C)CC3)CC2)ccc1Nc1ncc2c(n1)N(C)c1ccccc1C(=O)N2C [15 (LRRK2-IN-1)] | 98 | 40 | 100 % Ctrl
